Laboratory results published in patent publication US20240158438A1, “POLYPEPTIDE COMPOUND AND APPLICATION THEREOF” (CHENGDU SINTANOVO BIOTECHNOLOGY CO., LTD., priority 2021, published 2024).
Starred links: 1 amine or outer side, 2 acyl side, 3 side chain; linkers in the order of their positions; H or OH if unused. Non-standard residues stand in square brackets, D forms with d. Residues, ends and D or L forms follow the SMILES beside them. *: point of attachment. Azetidine3carboxylic = O=C(C1CN([*:1])C1)[*:2]; Pyrrolidine3carbonyl(3S) = O=C([C@H]1CCNC1)*; X6 = O=C(C1[C@H]2CC[C@H](C2)N1[*:1])[*:2]; X5 = NC12CC3CC(C1)CC(CC(=O)*)(C3)C2; dBta = N[C@H](Cc1csc2ccccc12)C(=O)O; X7 = O=C([C@@]12CNC[C@@H]1C2)*; Ac4c(3-oxa) = NC1(C(=O)O)COC1; X1 = N[C@H]1CCC[C@H]1C(=O)*; dAbu = CC[C@@H](N)C(=O)O; Api = NC1(C(=O)O)CCNCC1; X4 = O=C([C@H]1CNCCO1)*; dAze = O=C(O)[C@H]1CCN1; X3 = NCC1(C(=O)*)CCC1

Each compound was assayed against GHSR-1a (Homo sapiens (Human), UniProt Q92847) (assay: Agonistic activity for GHSR-1a, FLIPR calcium assay). Details: agonist activity assay, Flp In-CHO-GHSR Stable Pool cells, FLIPR calcium 6 kit; read-out: The activity (IC50) of polypeptide compounds for GHSR-1a.
Type: cell-based
From the text: The use of recombinant expression of GHSR provides several advantages; for example, the receptor can be expressed in a determined cell system, so that it is easier to distinguish between the reactions of the compounds with GHSR and the reactions with other receptors. For example, cell lines such as HEK293, COS7 and CHO that […] can be used to express GHSR, and the same cell lines without expression vectors are used as controls.
The activity of GHSR-1a can be measured using different techniques, for example, by detecting the change in the intracellular conformation of GHSR, the change in G-protein coupling activity, and/or the change in intracellular messengers. Techniques such as measuring intracellular Ca^2+ are preferably used to measure the activity of GHSR-1a. Examples of techniques known in the art that can be used to measure Ca^2+ include the use of FLIPR® calcium ion assay kits, among others. The FLIPR® calcium ion assay kits use a calcium ion sensitive indicator and a masking dye to ensure that a researcher carries out high-sensitivity fluorescent screening for G protein-coupled receptors, ion channels and other calcium ion sensitive targets. This experiment used FLIPR calcium 6 assay kits and FLIPR calcium 6-QF assay kits.
• a) Cell line: Flp In-CHO-GHSR Stable Pool; • b) Complete medium: F12K+10% fetal bovine serum+1×penicillin-streptomycin (PS)+600 μg/mL hygromycin B; • c) Cell seeding medium: F12K+10% fetal bovine serum. • d) Assay buffer: 1× HBSS+20 mM HEPES. • e) […] component A: Assay buffer and component A were left at room temperature (RT), 10 mL of buffer was added to component A, and the mixture was vortexed for 1-2 min and stored at −20° C.
• a) Compound stock solutions: the powders from in-house synthesis were made into 10 mM stock solutions in DMSO according to the standard protocol. • b) Compound storage: all compounds in DMSO were stored in room temperature desiccators for short-term storage (at most 4 months). The remaining compounds were left at −20 ° C. for long-term storage.
• a) Flp In-CHO-GHSR Stable Pool cells were cultured in complete medium. • b) The cells were placed in […] cell seeding medium in a 384-well cell culture plate (Corning, 3764) at 7k cells/well and cultured overnight at 37° C. with 5% CO2. • c) 20× component A was thawed at room temperature, diluted with assay buffer to 2×, and left at RT. • d) The Petri dish was taken out of the incubator and equilibrated at room temperature for 10 min. The medium was changed to […]. After the final wash, 20 μL of buffer was kept in each well, 20 μL of 2× component A was then added to each well, and the plate was incubated at 37° C. for 3-5 s. • e) 10 μL of 5× compound was added to the 384-well cell culture plate, and data collection was immediately performed using FLIPR Tetra.
• 1) Z′ factor=1−3×(SDMax+SDMin)/(MeanMax−MeanMin); • 2) CVMax=(SDMax/MeanMax)×100%; • 3) CVMin=(SDMin/MeanMin)×100%; • 4) S/B=Singal/Background; • 5) Calculation formula for IC50: • Y=Bottom+(Top−Bottom)/(1+10^((LogIC50−X)×HillSlope)) • X: log value of compound concentration; Y: Activation % or Inhibition %

GHSR-1a, sequence (Q92847 whole entry): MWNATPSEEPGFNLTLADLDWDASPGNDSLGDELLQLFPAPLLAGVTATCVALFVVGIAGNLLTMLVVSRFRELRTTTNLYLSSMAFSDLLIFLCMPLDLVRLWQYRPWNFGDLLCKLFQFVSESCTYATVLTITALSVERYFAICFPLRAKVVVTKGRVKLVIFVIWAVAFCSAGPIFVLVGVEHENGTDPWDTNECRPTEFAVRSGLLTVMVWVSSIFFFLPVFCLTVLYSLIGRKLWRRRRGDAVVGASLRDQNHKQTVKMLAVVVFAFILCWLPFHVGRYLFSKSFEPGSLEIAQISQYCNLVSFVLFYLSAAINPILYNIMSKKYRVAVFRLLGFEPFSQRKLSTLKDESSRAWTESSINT

SMILES	IC50
NCCCC[C@@H](NC(=O)[C@H](Cc1ccccc1)NC(=O)[C@@H](Cc1c[nH]c2ccccc12)NC(=O)[C@@H](Cc1csc2ccccc12)NC(=O)CC12CC3CC(CC(N)(C3)C1)C2)C(N)=O [Compound 58] (X5-[dBta][dW]F[dK]-NH2)	104 nM
NCCCC[C@@H](NC(=O)[C@H](Cc1ccccc1)NC(=O)[C@@H](Cc1c[nH]c2ccccc12)NC(=O)[C@@H](Cc1csc2ccccc12)NC(=O)[C@@]12CNC[C@@H]1C2)C(N)=O [Compound 60] (X7-[dBta][dW]F[dK]-NH2)	22.4 nM
N=C(N)NCCC[C@@H](NC(=O)[C@H](Cc1ccccc1)NC(=O)[C@@H](Cc1c[nH]c2ccccc12)NC(=O)[C@@H](Cc1csc2ccccc12)NC(=O)[C@@H]1CCC[C@@H]1N)C(N)=O [Compound 61] (X1-[dBta][dW]F[dR]-NH2)	20.5 nM
N=C(N)NCCC[C@@H](NC(=O)[C@H](Cc1ccccc1)NC(=O)[C@@H](Cc1c[nH]c2ccccc12)NC(=O)[C@@H](Cc1csc2ccccc12)NC(=O)C1(CN)CCC1)C(N)=O [Compound 62] (X3-[dBta][dW]F[dR]-NH2)	30.3 nM
N=C(N)NCCC[C@@H](NC(=O)[C@H](Cc1ccccc1)NC(=O)[C@@H](Cc1c[nH]c2ccccc12)NC(=O)[C@@H](Cc1csc2ccccc12)NC(=O)C1CNC1)C(N)=O [Compound 63] (Azetidine3carboxylic-[dBta][dW]F[dR]-NH2)	27 nM
N=C(N)NCCC[C@@H](NC(=O)[C@H](Cc1ccccc1)NC(=O)[C@@H](Cc1c[nH]c2ccccc12)NC(=O)[C@@H](Cc1csc2ccccc12)NC(=O)C1(N)COC1)C(N)=O [Compound 64] (H-[Ac4c(3-oxa)][dBta][dW]F[dR]-NH2)	38.1 nM
N=C(N)NCCC[C@@H](NC(=O)[C@H](Cc1ccccc1)NC(=O)[C@@H](Cc1c[nH]c2ccccc12)NC(=O)[C@@H](Cc1csc2ccccc12)NC(=O)[C@H]1CCN1)C(N)=O [Compound 65] (H-[dAze][dBta][dW]F[dR]-NH2)	34.3 nM

Other lines, results leading:

IC50	SMILES
3.5 nM	CC[C@@H](N)C(=O)N[C@H](Cc1csc2ccccc12)C(=O)N[C@H](Cc1c[nH]c2ccccc12)C(=O)N[C@@H](Cc1ccccc1)C(=O)NC1(C(N)=O)CCNCC1 [Compound 2] (H-[dAbu][dBta][dW]F[Api]-NH2)
20 nM	NCCCC[C@@H](NC(=O)[C@H](Cc1ccccc1)NC(=O)[C@@H](Cc1c[nH]c2ccccc12)NC(=O)[C@@H](Cc1csc2ccccc12)NC(=O)[C@H]1CCN1)C(N)=O [Compound 55] (H-[dAze][dBta][dW]F[dK]-NH2)
13.4 nM	NCCCC[C@@H](NC(=O)[C@H](Cc1ccccc1)NC(=O)[C@@H](Cc1c[nH]c2ccccc12)NC(=O)[C@@H](Cc1csc2ccccc12)NC(=O)[C@H]1CNCCO1)C(N)=O [Compound 57] (X4-[dBta][dW]F[dK]-NH2)
16.8 nM	NCCCC[C@@H](NC(=O)[C@H](Cc1ccccc1)NC(=O)[C@@H](Cc1c[nH]c2ccccc12)NC(=O)[C@@H](Cc1csc2ccccc12)NC(=O)C1N[C@@H]2CC[C@H]1C2)C(N)=O (some centres unmarked) [Compound 59] (H-[X6][dBta][dW]F[dK]-NH2)
12 nM	N=C(N)NCCC[C@@H](NC(=O)[C@H](Cc1ccccc1)NC(=O)[C@@H](Cc1c[nH]c2ccccc12)NC(=O)[C@@H](Cc1csc2ccccc12)NC(=O)[C@H]1CCNC1)C(N)=O [Compound 66] ({Pyrrolidine3carbonyl(3S)}-[dBta][dW]F[dR]-NH2)

What follows are compounds tested against CYP1A2 (Homo sapiens (Human), UniProt P05177) (assay: in vitro). Details: microsomes, 10 min.
Type: in vitro ADME
Protocol: (§1) Human liver microsomes containing cytochrome P450 (0.253 mg/mL protein) were incubated with test compounds (0.05-50 μM), CYPs substrates (10 μM […], 5 μM diclofenac, 30 μM mephenytoin, 5 μM dextromethorphan hydrobromide and 2 μM midazolam) and 1.0 mM NADP at 37° C. for 10 min. Naphthoflavone, sulfaphenazole, N-3-benzylnirvanol, quinidine and ketoconazole were used as reference inhibitors.

CYP1A2, sequence (P05177 whole entry): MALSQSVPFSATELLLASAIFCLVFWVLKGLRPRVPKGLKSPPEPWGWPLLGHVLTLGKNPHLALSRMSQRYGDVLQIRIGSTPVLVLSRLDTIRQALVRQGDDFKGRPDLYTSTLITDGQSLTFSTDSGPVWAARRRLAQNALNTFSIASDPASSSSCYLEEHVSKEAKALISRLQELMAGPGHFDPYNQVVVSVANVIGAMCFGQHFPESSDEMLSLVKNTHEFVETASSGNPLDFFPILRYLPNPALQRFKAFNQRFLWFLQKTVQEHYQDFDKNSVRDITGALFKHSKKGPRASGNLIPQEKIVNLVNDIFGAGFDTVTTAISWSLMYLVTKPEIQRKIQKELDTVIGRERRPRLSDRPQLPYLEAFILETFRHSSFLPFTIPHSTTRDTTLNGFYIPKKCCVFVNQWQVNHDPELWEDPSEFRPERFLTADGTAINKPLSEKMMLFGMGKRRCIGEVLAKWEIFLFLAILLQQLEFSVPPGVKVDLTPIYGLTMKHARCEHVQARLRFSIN

IC50	SMILES
> 50000 nM	CC[C@@H](N)C(=O)N[C@H](Cc1csc2ccccc12)C(=O)N[C@H](Cc1c[nH]c2ccccc12)C(=O)N[C@@H](Cc1ccccc1)C(=O)NC1(C(N)=O)CCNCC1 [Compound 2] (H-[dAbu][dBta][dW]F[Api]-NH2)

What follows are compounds tested against CYP 2C19 (Homo sapiens (Human), UniProt P33261) (assay: not given). Details: microsomes, 10 min.
Type: in vitro ADME
Protocol: as §1

CYP 2C19, sequence (P33261 whole entry): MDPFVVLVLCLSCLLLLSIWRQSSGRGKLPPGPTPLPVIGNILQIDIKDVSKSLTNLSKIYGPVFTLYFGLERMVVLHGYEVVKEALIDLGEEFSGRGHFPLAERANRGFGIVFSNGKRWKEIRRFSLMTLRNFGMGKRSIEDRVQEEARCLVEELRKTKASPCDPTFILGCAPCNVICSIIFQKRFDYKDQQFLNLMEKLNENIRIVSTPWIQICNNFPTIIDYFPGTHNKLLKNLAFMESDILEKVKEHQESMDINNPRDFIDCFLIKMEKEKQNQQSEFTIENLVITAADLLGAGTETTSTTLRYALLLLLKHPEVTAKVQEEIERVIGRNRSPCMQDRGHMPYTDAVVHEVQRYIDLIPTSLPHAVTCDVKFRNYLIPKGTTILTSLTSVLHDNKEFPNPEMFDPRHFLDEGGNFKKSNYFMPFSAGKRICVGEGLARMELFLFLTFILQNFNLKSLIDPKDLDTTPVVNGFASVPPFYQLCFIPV

IC50	SMILES
> 50000 nM	CC[C@@H](N)C(=O)N[C@H](Cc1csc2ccccc12)C(=O)N[C@H](Cc1c[nH]c2ccccc12)C(=O)N[C@@H](Cc1ccccc1)C(=O)NC1(C(N)=O)CCNCC1 [Compound 2] (H-[dAbu][dBta][dW]F[Api]-NH2)

The compounds below were run against CYP 2C9 (Homo sapiens (Human), UniProt P11712) (assay: not given). Details: microsomes, 10 min.
Type: in vitro ADME
Protocol: as §1

CYP 2C9, sequence (P11712 whole entry): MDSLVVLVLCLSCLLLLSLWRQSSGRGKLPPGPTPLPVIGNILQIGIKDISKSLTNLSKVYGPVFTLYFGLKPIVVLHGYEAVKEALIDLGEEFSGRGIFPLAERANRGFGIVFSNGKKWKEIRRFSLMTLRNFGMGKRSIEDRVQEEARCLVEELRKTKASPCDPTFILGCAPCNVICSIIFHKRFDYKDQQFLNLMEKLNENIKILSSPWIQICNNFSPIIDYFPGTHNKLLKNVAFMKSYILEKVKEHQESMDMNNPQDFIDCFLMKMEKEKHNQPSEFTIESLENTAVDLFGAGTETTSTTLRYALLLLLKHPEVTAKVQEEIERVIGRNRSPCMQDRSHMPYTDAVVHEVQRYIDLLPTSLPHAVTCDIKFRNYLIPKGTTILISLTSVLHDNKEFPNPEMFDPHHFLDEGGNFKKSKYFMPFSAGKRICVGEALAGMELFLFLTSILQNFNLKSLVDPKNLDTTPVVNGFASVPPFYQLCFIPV

IC50	SMILES
> 50000 nM	CC[C@@H](N)C(=O)N[C@H](Cc1csc2ccccc12)C(=O)N[C@H](Cc1c[nH]c2ccccc12)C(=O)N[C@@H](Cc1ccccc1)C(=O)NC1(C(N)=O)CCNCC1 [Compound 2] (H-[dAbu][dBta][dW]F[Api]-NH2)

What follows are compounds tested against CYP 2D6 (Homo sapiens (Human), UniProt P10635) (assay: not given). Details: microsomes, 10 min.
Type: in vitro ADME
Protocol: as §1

CYP 2D6, sequence (P10635 whole entry): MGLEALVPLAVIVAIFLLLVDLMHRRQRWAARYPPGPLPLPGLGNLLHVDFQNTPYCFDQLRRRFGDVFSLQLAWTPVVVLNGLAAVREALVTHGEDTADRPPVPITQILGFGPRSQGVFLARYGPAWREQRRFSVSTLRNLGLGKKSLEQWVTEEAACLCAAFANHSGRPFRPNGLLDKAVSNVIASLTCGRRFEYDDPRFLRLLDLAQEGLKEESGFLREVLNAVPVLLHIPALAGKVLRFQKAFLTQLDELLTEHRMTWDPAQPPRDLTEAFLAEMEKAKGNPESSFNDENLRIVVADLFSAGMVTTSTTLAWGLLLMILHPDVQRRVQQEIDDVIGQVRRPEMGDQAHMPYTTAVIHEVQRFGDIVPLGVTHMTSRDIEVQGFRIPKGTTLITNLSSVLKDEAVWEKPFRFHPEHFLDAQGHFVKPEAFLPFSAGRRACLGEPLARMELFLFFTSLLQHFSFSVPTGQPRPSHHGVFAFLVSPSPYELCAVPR

IC50	SMILES
> 50000 nM	CC[C@@H](N)C(=O)N[C@H](Cc1csc2ccccc12)C(=O)N[C@H](Cc1c[nH]c2ccccc12)C(=O)N[C@@H](Cc1ccccc1)C(=O)NC1(C(N)=O)CCNCC1 [Compound 2] (H-[dAbu][dBta][dW]F[Api]-NH2)

What follows are compounds tested against CYP 3A4 (Homo sapiens (Human), UniProt P08684) (assay: not given). Details: microsomes, 10 min.
Type: in vitro ADME
Protocol: as §1

CYP 3A4, sequence (P08684 whole entry): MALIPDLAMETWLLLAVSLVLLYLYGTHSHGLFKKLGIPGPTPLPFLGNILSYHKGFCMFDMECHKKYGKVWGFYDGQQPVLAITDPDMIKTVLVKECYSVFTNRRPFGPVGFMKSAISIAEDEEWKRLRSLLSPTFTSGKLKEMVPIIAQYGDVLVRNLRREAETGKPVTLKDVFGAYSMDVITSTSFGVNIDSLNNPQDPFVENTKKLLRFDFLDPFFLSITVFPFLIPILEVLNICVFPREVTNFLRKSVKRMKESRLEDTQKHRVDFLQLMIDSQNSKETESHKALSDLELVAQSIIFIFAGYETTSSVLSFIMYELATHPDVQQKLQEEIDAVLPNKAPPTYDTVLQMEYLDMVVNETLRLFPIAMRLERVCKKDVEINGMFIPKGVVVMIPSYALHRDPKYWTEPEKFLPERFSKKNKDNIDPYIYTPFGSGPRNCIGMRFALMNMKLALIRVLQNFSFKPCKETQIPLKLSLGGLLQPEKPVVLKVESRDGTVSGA

IC50	SMILES
20000 nM	CC[C@@H](N)C(=O)N[C@H](Cc1csc2ccccc12)C(=O)N[C@H](Cc1c[nH]c2ccccc12)C(=O)N[C@@H](Cc1ccccc1)C(=O)NC1(C(N)=O)CCNCC1 [Compound 2] (H-[dAbu][dBta][dW]F[Api]-NH2)
